Assay results published in patent US20240424134A1, “PEPTIDE HAVING INDEPENDENTLY STABILIZED HYDROPHOBIC ALPHA HELIX, PEPTIDE COMPLEX COMPRISING SAME AND USES THEREOF” (UIF (University Industry Foundation), Yonsei University, priority 2022, published 2024).
“Also recorded” adds a separate entry of the source. Non-standard residues stand in square brackets, D forms with d. Primed or numbered codes have the meaning given here. No end group written: not given here. PEG8′ = not defined here; Aib = CC(C)(N)C(=O)O

Key:
[1] = CD (circular dichroism) spectroscopy of α-helix structure; type: physicochemical; conditions: for α-helix structure (in words): from CD spectra
Method: To evaluate the structures of a linear plasmid DNA and peptides, CD spectra were analyzed using a Chirascan CD spectrometer (Applied Photophysics, UK). […] The final concentration of the linear plasmid DNA was 30 ng/μL. All the samples were dissolved in H2O. For the formation of the artificial chromosome, a mixture of the peptide and the DNA was incubated for 12 days or longer. Scanning was performed using a 2-mm path-length cuvette. Each scan was repeated three times and averaged. MRE (mean residue ellipticity) was calculated based on the number of amino acid residues.
CD (circular dichroism) spectroscopy was performed as follows.
The CD spectra were analyzed using a Chirascan CD spectrometer (Applied Photophysics, UK). […] All the samples were dissolved in H2O. Each scan was repeated three times using a 2-mm path-length cuvette and averaged. MRE (mean residue ellipticity) was calculated based on the number of amino acid residues.

[2] = AFM analysis of self-assembled peptide complexes; type: physicochemical; conditions: for Average diameter (nm) / AFM morphology: Table 12, self-assembled structure; for AFM morphology: 25 μM in distilled water
Method: AFM was performed using an NX10 system (Park Systems, Korea) in a non-contact mode with PPP-NCHR AFM probes (Nanosensors, Switzerland). The DNA concentration ranged from 1 to 30 ng/μL and the peptide concentration ranged from 1 to 32 μM (in H2O). 2 μL of the sample solution was cast onto a freshly cleaved mica surface and dried. The data obtained by the SmartScan program (Park Systems, Korea) was analyzed using the XEI program (Park Systems, Korea).
The CD spectroscopy was performed in the same manner as in Test Example 2 and the AFM was performed using the NX10 system (Park Systems, Korea) in a non-contact mode with PPP-NCHR AFM probes (Nanosensors, Switzerland). The peptide complex concentration ranged from 1 to 32 μM (in H2O). 2 μL of the sample solution was cast onto a freshly cleaved mica surface and dried. The data obtained by the SmartScan program (Park Systems, Korea) were analyzed using the XEI program (Park Systems, Korea).
The peptide complexes of Examples 37-40 were imaged by AFM. 25 μM of the peptide complex was dissolved in distilled water, sonicated for 5 minutes, incubated overnight and dropped on mica for measurement.

[3] = Table 14, coil-rod-coil peptide complexes
[4] = Table 9, linear and cyclic αm-PEG10 peptide complexes, in H2O
[5] = Table 13, cyclic peptide complexes
[6] = Table 11, peptide complexes of Examples 37-97
[7] = Table 10, hydrophobic peptides of Examples 1-36

(PEG8)3AUAUAUAUAUAUAUAUAUAUA(PEG8)3 [Example 126]
[θ]222/[θ]208 [1, 3]: 1.18

WAUAUAUAUAUAUAU(PEG2)5 [Example 101]
[θ]222/[θ]208 [1, 4]: 1.01
[θ]222/[θ]208 [1, 5]: 1.01

WAUAUAUAUGHHHHHHHHHHGRGDRGDRGDG [Example 104]
[θ]222/[θ]208 [1, 5]: 0.2

RAUAUAUAUAUAUAUAUAUAUAGRGDRGDRGDG [Example 66]
Average diameter (nm) [2]: 20-30 nm
AFM morphology [2]: Micelle
θ222 nm/θ208 nm ratio [1, 6]: 0.91

AUAUAUAUA [Example 2]
θ222 nm/θ208 nm ratio [1, 7]: 0.72

(PEG2)5RRRRRR(PEG2)5WAUAUAUAUAUAUAUAU [Example 111]
[θ]222/[θ]208 [1, 5]: 0.95

(PEG8)2AUAUAUAUAUAUAUA(PEG8)2 [Example 124]
[θ]222/[θ]208 [1, 3]: 0.78

RRAUAUAUAUAUAUAUAUAUAUAGRGDRGDRGDG (RRA[Aib]A[Aib]A[Aib]A[Aib]A[Aib]A[Aib]A[Aib]A[Aib]A[Aib]A[Aib]AGRGDRGDRGDG) [Example 68]
Average diameter (nm) [2]: 40-110 nm
AFM morphology [2]: Vesicle
θ222 nm/θ208 nm ratio [1, 6]: 0.89

RAUAUAUAUA(PEG8)2 (RA[Aib]A[Aib]A[Aib]A[Aib]A-{PEG8′-PEG8′-NH2}) [Example 58]
AFM morphology [2]: Not assembled
θ222 nm/θ208 nm ratio [1, 6]: 0.36

RRRRAUAUAUAUAUAUAUAUAUAUA(PEG8)2 (RRRRAXAXAXAXAXAXAXAXAXAXA; (PEG8)2 C-terminal; SITE 6 2-aminoisobutyric acid; SITE 8 2-aminoisobutyric acid; SITE 10 2-aminoisobutyric acid; SITE 12 2-aminoisobutyric acid; SITE 14 2-aminoisobutyric acid; SITE 16 2-aminoisobutyric acid; SITE 18 2-aminoisobutyric acid; SITE 20 2-aminoisobutyric acid; SITE 22 2-aminoisobutyric acid; SITE 24 2-aminoisobutyric acid) [Example 63]
self-assembly behavior in an aqueous solvent ([2]; AFM): self-assembles into spherical particles
Average diameter (nm) [2]: 20-50 nm
AFM morphology [2]: Micelle
θ222 nm/θ208 nm ratio [1, 6]: 1.03

AUAUAUAUAUAUAUAUAUAUA(PEG8)2 [Example 54]
Average diameter (nm) [2]: 20-90 nm
AFM morphology [2]: Micelle, vesicle
θ222 nm/θ208 nm ratio [1, 6]: 1.2

EEAUAUAUAUAUAUAUAUAUAUA(PEG8)2 [Example 91]
Average diameter (nm) [2]: 20-30 nm
AFM morphology [2]: Micelle
θ222 nm/θ208 nm ratio [1, 6]: 1.18

EAUAUAUAUAUAUAUAUAUAUARGDRGDRGD (EA[Aib]A[Aib]A[Aib]A[Aib]A[Aib]A[Aib]A[Aib]A[Aib]A[Aib]A[Aib]ARGDRGDRGD) [Example 94]
θ222 nm/θ208 nm ratio [1, 6]: 1.06

GSGSGSGSGAUAUAUAUAUAUAUAUAUAUAGSGSGSGSG [Example 118]
[θ]222/[θ]208 [1, 3]: 1.02

Example 38: peptide complex (Wαm-RGD), SEQ ID NO 38 (L[Aib]L[Aib]L[Aib]L[Aib]LGRGDRGDG)
self-assembly behavior in an aqueous solvent ([2]; AFM): spherical particles
Average diameter (nm) [2]: 50-200 nm
AFM morphology [2]: Vesicle
θ222 nm/θ208 nm ratio [1, 6]: 0.44

RGDRGDAUAUAUAUAUAUAUAUAUAUARR [Example 73]
θ222 nm/θ208 nm ratio [1, 6]: 1.1

WAUAUAUAUAUAUGHHHHHHHHHHGRGDRGDRGDG [Example 106]
[θ]222/[θ]208 [1, 5]: 0.65

Example 41: peptide complex (Wαm-RGD, Wαm-GS), SEQ ID NO 41 (A[Aib]A[Aib]A[Aib]A[Aib]A[Aib]A[Aib]A[Aib]A[Aib]A[Aib]A[Aib]AGRGDRGDRGDG)
Average diameter (nm) [2]: 20-40 nm
AFM morphology [2]: Micelle
θ222 nm/θ208 nm ratio [1, 6]: 0.91

WAUAUAUAUAUAU(PEG2)5 [Example 100]
[θ]222/[θ]208 [1, 4]: 0.95
[θ]222/[θ]208 [1, 5]: 0.95

WAUAUAUAUAUAUAUAUAU(PEG2)5 [Example 103]
[θ]222/[θ]208 [1, 5]: 1.21

AUAUAUAUA(PEG8)2 [Example 52]
AFM morphology [2]: Not assembled
θ222 nm/θ208 nm ratio [1, 6]: 0.54

(PEG8)AUAUAUAUAUAUAUAUAUAUA(PEG8)2 [Example 121]
[θ]222/[θ]208 [1, 3]: 1.04

(PEG8)2AUAUAUAUAUAUAUAUAUAUA(PEG8)2 [Example 125]
self-assembly behavior in an aqueous solvent ([2]; AFM): did not self-assemble
[θ]222/[θ]208 [1, 3]: 1.21
[θ]222/[θ]203 ratio ([1]; depending on concentration): 1.1-1.2

Example 40: peptide complex (Wαm-RGD), SEQ ID NO 40 (AXAXAXAXAXAXAXAXAXAXAGRGDRGDG; RGD peptides; SITE 2 2-aminoisobutyric acid; SITE 4 2-aminoisobutyric acid; SITE 6 2-aminoisobutyric acid; SITE 8 2-aminoisobutyric acid; SITE 10 2-aminoisobutyric acid; SITE 12 2-aminoisobutyric acid; SITE 14 2-aminoisobutyric acid; SITE 16 2-aminoisobutyric acid; SITE 18 2-aminoisobutyric acid; SITE 20 2-aminoisobutyric acid)
average diameter ([2]; AFM): 20 nm
self-assembly behavior in an aqueous solvent ([2]; AFM): self-assembled into spherical particles such as micelles; also recorded: micelle particles
length of micelle particles ([2]; AFM, FIG. 80): 7.2-12.4 nm
Average diameter (nm) [2]: 20-30 nm
AFM morphology [2]: Micelle
θ222 nm/θ208 nm ratio [1, 6]: 0.99
α-helix structure (in words) [1]: most perfect α-helix structure

RRAUAUAUAUAUAUAUAUAUAUA(PEG8)2 [Example 61]
Average diameter (nm) [2]: 90-250 nm
AFM morphology [2]: Vesicle
θ222 nm/θ208 nm ratio [1, 6]: 1.13

RAUAUAUAUAUAUAUAUAUAUAGRGDRGDRGDRGDG [Example 67]
minimum at 222 and 208 nm in the spectra ([1]; Table 11): no minimum was observed

WAUAUAUAUAUAUAUAU(PEG2)5RGDRGD(PEG2)5 [Example 110]
[θ]222/[θ]208 [1, 5]: 1.06

WAUAUAUAUAUAUAUAUAUGHHHHHHHHHHGRGDRGDRGDG [Example 109]
[θ]222/[θ]208 [1, 5]: 0.89

(PEG10)2AUAUAUAUAUAUAUAUAUAUA(PEG10)2 [Example 127]
[θ]222/[θ]208 [1, 3]: 1.2

WAUAUAUAUAUAUAUAU(PEG2)5 [Example 50]
[θ]222/[θ]208 [1, 4]: 1.10
θ222 nm/θ208 nm ratio [1, 6]: 1.10

WAUAUAUAU(PEG2)5 [Example 46]
θ222 nm/θ208 nm ratio [1, 6]: 0.72

(PEG8)2AUAUAUAUAUAUAUAUAUAUA(PEG8) [Example 122]
[θ]222/[θ]208 [1, 3]: 1.06

AUAUAUAUAUAUAUAUAUAUA [Example 14]
θ222 nm/θ208 nm ratio [1, 7]: 1.26
α-helix structure (in words) [1]: monomeric, nonpolar and perfect α-helix (MNP-helix) structure

Example 43: peptide complex (Wαm-RGD, Wαm-GS), SEQ ID NO 43 (AXAXAXAXAXAXAXAXAXAXAGSGSG; SITE 2 2-aminoisobutyric acid; SITE 4 2-aminoisobutyric acid; SITE 6 2-aminoisobutyric acid; SITE 8 2-aminoisobutyric acid; SITE 10 2-aminoisobutyric acid; SITE 12 2-aminoisobutyric acid; SITE 14 2-aminoisobutyric acid; SITE 16 2-aminoisobutyric acid; SITE 18 2-aminoisobutyric acid; SITE 20 2-aminoisobutyric acid)
θ222 nm/θ208 nm ratio [1, 6]: 1.15

WAUAUAUAUAUAU(PEG2)5 [Example 48]
[θ]222/[θ]208 [1, 4]: 0.88
θ222 nm/θ208 nm ratio [1, 6]: 0.88

RGDRGDRGDRGDAUAUAUAUAUAUAUAUAUAUAR [Example 72]
minimum at 222 and 208 nm in the spectra ([1]; Table 11): no minimum was observed

WAUAUAUAUAUGHHHHHHHHHHGRGDRGDRGDG [Example 105]
[θ]222/[θ]208 [1, 5]: 0.38

Example 45: peptide complex (Wαm-RGD, Wαm-GS), SEQ ID NO 45 (A[Aib]A[Aib]A[Aib]A[Aib]A[Aib]A[Aib]A[Aib]A[Aib]A[Aib]A[Aib]AGSGSGSGSG)
θ222 nm/θ208 nm ratio [1, 6]: 1.09

RGDRGDRGDRGDAUAUAUAUAUAUAUAUAUAUARR [Example 75]
minimum at 222 and 208 nm in the spectra ([1]; Table 11): no minimum was observed

GSGSGAUAUAUAUAUAUAUAUAUAUAGSGSG [Example 117]
[θ]222/[θ]208 [1, 3]: 1.07

AUAUAUAUAUAUAUA [Example 8]
θ222 nm/θ208 nm ratio [1, 7]: 1.13

(PEG8)AUAUAUAUA(PEG8)2 [Example 119]
[θ]222/[θ]208 [1, 3]: 0.61

(PEG8)2AUAUAUAUA(PEG8)2 [Example 123]
[θ]222/[θ]208 [1, 3]: 0.6

GSGAUAUAUAUAUAUAUAUAUAUAGSG [Example 116]
[θ]222/[θ]208 [1, 3]: 1.15

WAUAUAUAUAUAUAUGHHHHHHHHHHGRGDRGDRGDG [Example 107]
[θ]222/[θ]208 [1, 5]: 0.71

(PEG8)AUAUAUAUAUAUAUA(PEG8)2 [Example 120]
[θ]222/[θ]208 [1, 3]: 0.83

WAUAUAUAUAUAUAUAUGHHHHHHHHHHGRGDRGDRGDG [Example 108]
[θ]222/[θ]208 [1, 5]: 0.83

WAUAUAUAUAUAUAU(PEG2)5 [Example 49]
[θ]222/[θ]208 [1, 4]: 1.05
θ222 nm/θ208 nm ratio [1, 6]: 1.05

WAUAUAUAUAUAUAUAUAU(PEG2)5 [Example 51]
θ222 nm/θ208 nm ratio [1, 6]: 1.19

RGDRGDRGDAUAUAUAUAUAUAUAUAUAUARR [Example 74]
θ222 nm/θ208 nm ratio [1, 6]: 1.11
